In patent publication US11666578B2, “Small molecule inhibitors of CDK12/CDK13” (The Scripps Research Institute, priority 2018, dated 2023):
pIC50, pKd: −log10 of the molar value. Values after ≈ are worked out from the molar mass of the structure shown. Values joined by “and” are separate entries in the source; they are usually repeats but may differ in a detail not shown here. Equal values may be shown once. Read-outs that look alike come from different tables or passages of the source.

Columns and labels:
[1] = Solubility in pH 7.4 phosphate buffered saline; type: physicochemical; conditions: aqueous buffer
[2] = Microsome stability, mouse liver microsomes; type: in vitro ADME; conditions: read-out: Microsome stability t1/2
CYP 2D6 = CYP 2D6 (Homo sapiens, UniProt P10635); assay: Cytochrome P450 inhibition assay, 2D6; type: in vitro ADME
Sequence of CYP 2D6 (P10635 whole entry): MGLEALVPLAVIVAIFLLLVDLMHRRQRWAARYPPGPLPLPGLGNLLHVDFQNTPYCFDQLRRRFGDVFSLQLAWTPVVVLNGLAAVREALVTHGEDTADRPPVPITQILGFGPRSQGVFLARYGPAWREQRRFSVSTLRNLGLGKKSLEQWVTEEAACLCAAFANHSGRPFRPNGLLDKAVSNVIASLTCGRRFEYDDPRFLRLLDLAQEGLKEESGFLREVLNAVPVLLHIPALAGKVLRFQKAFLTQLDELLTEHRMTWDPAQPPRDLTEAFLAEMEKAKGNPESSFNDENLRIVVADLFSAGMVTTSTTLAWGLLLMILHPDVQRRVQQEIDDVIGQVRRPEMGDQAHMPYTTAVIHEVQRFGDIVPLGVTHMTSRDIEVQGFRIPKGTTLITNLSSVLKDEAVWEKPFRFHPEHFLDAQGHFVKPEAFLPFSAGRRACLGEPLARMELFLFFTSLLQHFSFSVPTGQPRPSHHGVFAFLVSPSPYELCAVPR

CK1ε = CK1ε (Homo sapiens, UniProt P49674); assay: In-house kinase inhibition assay, CK1ε; type: biochemical
Sequence of CK1ε (P49674 whole entry): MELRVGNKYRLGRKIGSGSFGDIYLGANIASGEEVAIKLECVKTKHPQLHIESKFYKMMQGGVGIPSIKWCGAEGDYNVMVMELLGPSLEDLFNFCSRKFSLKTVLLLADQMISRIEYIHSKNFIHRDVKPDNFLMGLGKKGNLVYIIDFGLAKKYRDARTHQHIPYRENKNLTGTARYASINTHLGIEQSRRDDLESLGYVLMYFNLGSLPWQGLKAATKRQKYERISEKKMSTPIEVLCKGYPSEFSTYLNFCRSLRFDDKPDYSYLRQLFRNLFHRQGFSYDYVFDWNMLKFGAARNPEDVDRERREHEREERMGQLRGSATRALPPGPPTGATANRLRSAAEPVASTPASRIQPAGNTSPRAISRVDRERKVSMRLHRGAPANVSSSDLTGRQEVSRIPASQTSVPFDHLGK
Source text: (§1) [drawing 21] wherein the substituents W, X, Y, Z, and R^1, are as specified in the respective Table columns.

[3] = Microsome stability, human liver microsomes; type: in vitro ADME; conditions: read-out: Microsome stability t1/2 (H)
CYP 2C9 = CYP 2C9 (Homo sapiens, UniProt P11712); assay: Cytochrome P450 inhibition assay, 2C9; type: in vitro ADME
Sequence of CYP 2C9 (P11712 whole entry): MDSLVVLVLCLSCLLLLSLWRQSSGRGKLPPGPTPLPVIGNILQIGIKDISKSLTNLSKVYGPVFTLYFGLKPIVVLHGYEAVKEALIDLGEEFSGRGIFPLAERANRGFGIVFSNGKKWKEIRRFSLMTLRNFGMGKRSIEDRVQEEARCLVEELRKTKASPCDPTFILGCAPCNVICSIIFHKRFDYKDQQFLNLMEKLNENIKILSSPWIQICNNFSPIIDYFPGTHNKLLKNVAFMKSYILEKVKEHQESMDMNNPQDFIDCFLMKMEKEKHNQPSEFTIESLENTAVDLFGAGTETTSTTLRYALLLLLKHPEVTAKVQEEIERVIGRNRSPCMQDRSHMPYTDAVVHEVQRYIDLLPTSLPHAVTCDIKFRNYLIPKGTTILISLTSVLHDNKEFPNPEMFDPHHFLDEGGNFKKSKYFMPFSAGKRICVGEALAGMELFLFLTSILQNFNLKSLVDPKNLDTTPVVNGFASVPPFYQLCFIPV

[4] = Microsome stability, rat liver microsomes; type: in vitro ADME; conditions: read-out: Microsome stability t1/2 (R)
CYP 1A2 = target: T1, CYP 1A2 (Homo sapiens, UniProt P05177); assay: Cytochrome P450 inhibition assay, 1A2; type: in vitro ADME
T1 sequence (P05177 1-516): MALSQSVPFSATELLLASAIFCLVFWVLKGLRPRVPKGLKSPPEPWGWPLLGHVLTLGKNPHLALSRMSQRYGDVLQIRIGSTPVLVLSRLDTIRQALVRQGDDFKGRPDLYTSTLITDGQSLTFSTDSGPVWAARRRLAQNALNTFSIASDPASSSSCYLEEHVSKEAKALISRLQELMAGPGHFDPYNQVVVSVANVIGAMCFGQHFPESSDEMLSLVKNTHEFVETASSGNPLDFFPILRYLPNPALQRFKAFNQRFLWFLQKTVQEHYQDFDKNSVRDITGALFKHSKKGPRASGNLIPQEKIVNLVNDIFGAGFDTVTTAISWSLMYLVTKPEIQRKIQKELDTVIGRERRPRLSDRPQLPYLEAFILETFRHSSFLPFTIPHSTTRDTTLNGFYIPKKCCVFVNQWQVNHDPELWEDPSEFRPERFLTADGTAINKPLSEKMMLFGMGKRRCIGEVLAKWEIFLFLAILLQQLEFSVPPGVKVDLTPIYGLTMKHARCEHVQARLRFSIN

CK1δ = CK1δ (Homo sapiens, UniProt P48730); assay: In-house kinase inhibition assay, CK1δ; type: biochemical
Sequence of CK1δ (P48730 whole entry): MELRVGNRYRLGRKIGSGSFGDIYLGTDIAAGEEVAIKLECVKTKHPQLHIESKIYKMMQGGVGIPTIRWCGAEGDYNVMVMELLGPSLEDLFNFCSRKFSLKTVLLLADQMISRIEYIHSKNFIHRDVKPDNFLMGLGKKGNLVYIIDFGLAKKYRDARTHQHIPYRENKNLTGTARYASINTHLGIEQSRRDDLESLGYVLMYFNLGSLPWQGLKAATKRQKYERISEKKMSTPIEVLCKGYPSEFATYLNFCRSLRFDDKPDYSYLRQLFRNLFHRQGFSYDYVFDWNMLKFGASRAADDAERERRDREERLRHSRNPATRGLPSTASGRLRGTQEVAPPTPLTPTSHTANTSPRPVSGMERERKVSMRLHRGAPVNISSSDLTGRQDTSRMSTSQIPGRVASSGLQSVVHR
Source text: as §1

CYP 3A4 = CYP 3A4 (Homo sapiens, UniProt P08684); assay: Cytochrome P450 inhibition assay, 3A4; type: in vitro ADME
Sequence of CYP 3A4 (P08684 whole entry): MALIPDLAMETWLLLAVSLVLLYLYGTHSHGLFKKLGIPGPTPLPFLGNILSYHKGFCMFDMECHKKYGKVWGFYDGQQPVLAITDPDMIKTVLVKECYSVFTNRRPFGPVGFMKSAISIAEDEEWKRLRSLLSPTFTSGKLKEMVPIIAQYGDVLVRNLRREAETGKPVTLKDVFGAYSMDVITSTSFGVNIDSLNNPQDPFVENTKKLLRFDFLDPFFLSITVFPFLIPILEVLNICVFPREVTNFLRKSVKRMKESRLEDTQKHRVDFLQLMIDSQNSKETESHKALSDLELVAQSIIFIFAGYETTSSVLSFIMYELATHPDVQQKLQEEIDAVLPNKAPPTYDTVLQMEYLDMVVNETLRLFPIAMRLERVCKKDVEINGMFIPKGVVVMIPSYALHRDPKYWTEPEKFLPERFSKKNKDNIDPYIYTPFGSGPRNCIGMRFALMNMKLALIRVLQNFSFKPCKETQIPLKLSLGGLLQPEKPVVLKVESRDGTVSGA

CDK12 = target: T2, CDK12 (Homo sapiens, UniProt Q9NYV4); assay: Competition binding assay, DiscoverX (Kinomescan), CDK12
T2 construct: purchased DiscoverX
T2 sequence (Q9NYV4 whole entry): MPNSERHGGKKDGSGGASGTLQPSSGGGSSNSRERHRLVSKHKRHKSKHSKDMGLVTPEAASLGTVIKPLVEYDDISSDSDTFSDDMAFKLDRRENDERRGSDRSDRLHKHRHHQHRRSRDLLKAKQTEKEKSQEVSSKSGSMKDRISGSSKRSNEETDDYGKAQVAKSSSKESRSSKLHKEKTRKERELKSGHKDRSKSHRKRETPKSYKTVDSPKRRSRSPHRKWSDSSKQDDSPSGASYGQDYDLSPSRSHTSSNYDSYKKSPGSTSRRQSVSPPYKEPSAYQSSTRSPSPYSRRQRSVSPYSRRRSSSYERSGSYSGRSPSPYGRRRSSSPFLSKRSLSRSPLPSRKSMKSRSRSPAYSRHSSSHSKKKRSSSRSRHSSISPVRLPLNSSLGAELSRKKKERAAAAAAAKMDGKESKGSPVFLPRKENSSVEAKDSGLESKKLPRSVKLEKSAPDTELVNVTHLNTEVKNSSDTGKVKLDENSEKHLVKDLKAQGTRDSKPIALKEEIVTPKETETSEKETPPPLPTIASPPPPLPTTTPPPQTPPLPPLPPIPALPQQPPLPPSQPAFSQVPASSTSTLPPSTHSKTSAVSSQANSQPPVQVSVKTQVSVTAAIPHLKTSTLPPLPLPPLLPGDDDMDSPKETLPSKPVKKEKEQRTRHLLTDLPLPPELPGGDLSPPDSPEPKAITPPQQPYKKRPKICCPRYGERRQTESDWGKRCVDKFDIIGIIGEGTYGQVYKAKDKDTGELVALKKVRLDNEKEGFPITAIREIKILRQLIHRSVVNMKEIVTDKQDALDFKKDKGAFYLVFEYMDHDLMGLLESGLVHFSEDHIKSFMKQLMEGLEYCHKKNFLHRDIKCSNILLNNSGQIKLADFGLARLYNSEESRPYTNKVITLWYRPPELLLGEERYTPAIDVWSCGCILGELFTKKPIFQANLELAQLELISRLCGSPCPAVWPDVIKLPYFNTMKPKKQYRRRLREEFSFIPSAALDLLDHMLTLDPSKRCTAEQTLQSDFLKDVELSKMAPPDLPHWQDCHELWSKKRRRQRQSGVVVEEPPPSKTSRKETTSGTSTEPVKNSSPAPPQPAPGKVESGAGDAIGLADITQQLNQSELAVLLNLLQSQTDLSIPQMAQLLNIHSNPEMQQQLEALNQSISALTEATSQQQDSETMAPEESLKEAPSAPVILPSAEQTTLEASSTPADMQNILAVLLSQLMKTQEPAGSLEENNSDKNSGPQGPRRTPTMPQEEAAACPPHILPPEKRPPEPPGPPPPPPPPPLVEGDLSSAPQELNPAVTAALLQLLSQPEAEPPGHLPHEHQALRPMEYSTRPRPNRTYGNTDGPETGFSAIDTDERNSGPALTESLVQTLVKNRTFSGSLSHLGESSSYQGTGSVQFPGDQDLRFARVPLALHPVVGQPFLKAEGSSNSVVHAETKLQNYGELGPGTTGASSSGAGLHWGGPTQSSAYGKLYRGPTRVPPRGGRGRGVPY
Source text: as §1
In addition to screening a selected set of new inhibitors in CDK12/13 enzyme assays using Kinomescan™ technology, we tested all new compounds in a mechanism of action assay, which detects inhibition of phosphorylation of serine 2 (pSer2) on the C-terminal repeat domain (CTD) of RNA pol II.

Mouse PK = type: in vivo; conditions: for AUC: read-out: AUCINF_dos (converted)
CDK13 = target: T3, CDK13 (Homo sapiens, UniProt Q14004); assay: Competition binding assay, DiscoverX (Kinomescan), CDK13
T3 construct: purchased DiscoverX
Source text: as §1
In addition to screening a selected set of new inhibitors in CDK12/13 enzyme assays using Kinomescan™ technology, we tested all new compounds in a mechanism of action assay, which detects inhibition of phosphorylation of serine 2 (pSer2) on the C-terminal repeat domain (CTD) of RNA pol II. […] In order to confirm that CDK12/13 inhibition is driving cell death, we also plotted the growth inhibition pIC50's with pSer2 inhibition data. There was a good correlation when using the cell proliferation data from both U87 and MDA-MB-231 cell lines (FIGS. 5 and 6).

other CDKs (CDK panel) = assay: Selectivity in CDK panel (% of inhibition at 10 μM); type: biochemical; conditions: FIG. 2
Method: FIGS. 2a and 2b. Selectivity of selected CDK12/13 inhibitors against other CDKs (% of inhibition at 10 μM)

U87 cell line = assay: Cell proliferation / growth inhibition, U87, 72 h (Cell-Titer Glo); type: cell-based; conditions: Homo sapiens, U-87 MG
MDA-MB-231 cell line = assay: Cell proliferation / growth inhibition, MDA-MB-231, 72 h (Cell-Titer Glo); type: cell-based; conditions: Homo sapiens
[5] = read-out: CK1δ IC50, read-out: CK1σ IC50

| Compound | solubility [1] | half-life [2] | CYP inhibition 2D6 (CYP 2D6) | pIC50 (CK1ε) | half-life [3] | CYP inhibition 2C9 (CYP 2C9) | half-life [4] | CYP inhibition 1A2 (CYP 1A2) | pIC50 (CK1δ; [5]) | CYP inhibition 3A4 (CYP 3A4) | further results |
| --- | --- | --- | --- | --- | --- | --- | --- | --- | --- | --- | --- |
| Cn1cc(-n2cnc3c(NCc4nc5cc(F)c(F)cc5[nH]4)nc(N4CCOCC4)nc32)cn1 [Compound 2, N-((5,6-difluoro-1H-benzo[d]imidazol-2-yl)methyl)-9-(1-methyl-1H-pyrazol-4-yl) morpholino-9H-purin-6-amine] | 0.8 µM (≈ 0.373 µg/mL) | 11 min | 2 % inh | 5.19 | 39 min | 23 % inh | 18 min | 5 % inh | < 5.00 | 55 % inh |  |
| Cn1cc(-n2cnc3c(NCc4nc5cc(Cl)c(Cl)cc5[nH]4)nc(N4CCOC[C@@H]4CO)nc32)cn1 [Compound 6, (S)-(4-(6-(((5,6-dichloro-1H-benzo[d]imidazol-2-yl)methyl)amino)-9-(1-methyl-1H-pyrazol-4-yl)-9H-purin-2-yl)morpholin-3-yl)methanol] | 0.8 µM (≈ 0.424 µg/mL) | 13 min | 42 % inh |  | 21 min | 69 % inh | 19 min | 42 % inh |  | 77 % inh |  |
| Fc1ccc2[nH]c(CNc3nc(N4CCOCC4)nc4c3ncn4-c3nccs3)nc2c1F [Compound 9, N-((4,5-difluoro-1H-benzo[d]imidazol-2-yl)methyl)-2-morpholino-9-(thiazol-2-yl)-9H-purin-6-amine] |  |  |  | 5.97 |  |  |  |  | 6.40 |  |  |
| COc1cc2nc(CNc3nc(N4CCOCC4)nc4c3ncn4-c3cnn(C)c3)[nH]c2cc1Cl [Compound 10] |  |  |  |  |  |  |  |  |  |  | pIC50 (CK1δ; read-out: CK1σ IC50): 5.11 |
| Cn1cc(-n2cnc3c(NCc4nc5c(F)c(F)ccc5[nH]4)nc(N4CCOCC4)nc32)cn1 [Compound 1, N-((4,5-difluoro-1H-benzo[d]imidazol-2-yl)methyl)-9-(1-methyl-1H-pyrazol-4-yl) morpholino-9H-purin-6-amine] | 6.1 µM (≈ 2.85 µg/mL) | 9 min | −3 % inh | 5.34 | 22 min | 23 % inh | 20 min | 10 % inh | 5.07 | 56 % inh | pKd (CDK12): 7.85; AUC % Extrap (Mouse PK; IP 30 mg/kg): 0.1%; CI_obs (Mouse PK; IP 30 mg/kg): 13.4 mL/min/kg; AUC(0-t) (Mouse PK; in vivo, IP 30 mg/kg): 25400 ng·h/mL and 55 µM·h; half-life (Mouse PK; in vivo, IP 30 mg/kg, 10/10/80 DMSO/Tween-80/water): 179 min; AUC (Mouse PK; in vivo, IP 30 mg/kg): 25500 ng·h/mL; Cmax (Mouse PK; in vivo, IP 30 mg/kg, read-out: Cmax): 9330 ng/mL and 20 µM; Tmax (Mouse PK; in vivo, IP 30 mg/kg, read-out: Tmax): 60 min; pKd (CDK13): 8.30 |
| Cn1cc(-n2cnc3c(NCc4nc5cc(Cl)c(Cl)cc5[nH]4)nc(N4CCOC[C@H]4CO)nc32)cn1 [Compound 7, (R)-(4-(6-(((5,6-dichloro-1H-benzo[d]imidazol-2-yl)methyl)amino)-9-(1-methyl-1H-pyrazol-4-yl)-9H-purin-2-yl)morpholin-3-yl)methanol] | 0.7 µM (≈ 0.371 µg/mL) | 18 min | 29 % inh |  | 27 min | 54 % inh | 25 min | 39 % inh |  | 54 % inh | AUC % Extrap (Mouse PK; IP 20 mg/kg): 1.0%; CI_obs (Mouse PK; IP 20 mg/kg): 61.6 mL/min/kg; Tmax (Mouse PK; IP 20 mg/kg): 60 min; T1/2 (Mouse PK; IP 20 mg/kg, 10/10/80 DMSO/Tween-80/water): 223 min; AUC (Mouse PK; in vivo, IP 20 mg/kg): 5530 ng·h/mL |
| Fc1cccc(-n2cnc3c(NCc4nc5c(F)c(F)ccc5[nH]4)nc(N4CCOCC4)nc32)c1 [SR-3029] |  |  |  |  |  |  |  |  |  |  | Selectivity in CDK panel (other CDKs (CDK panel)): good selectivity |
| Cc1cc(-n2cnc3c(NCc4nc5c(F)c(F)ccc5[nH]4)nc(N4CCOCC4)nc32)no1 [Compound 3, N-((4,5-difluoro-1H-benzo[d]imidazol-2-yl)methyl)-9-(5-methylisoxazol-3-yl)-2-morpholino-9H-purin-6-amine] | 3.6 µM (≈ 1.68 µg/mL) | 7 min | 2 % inh | 5.90 | 13 min | 23 % inh | 11 min | 5 % inh | 5.32 | 55 % inh | pKd (CDK12): 7.66; pKd (CDK13): 8.40 |
| Fc1ccc2[nH]c(CNc3nc(N4CCOCC4)nc4c3ncn4-c3cscn3)nc2c1F [Compound 4, N-((4,5-difluoro-1H-benzo[d]imidazol-2-yl)methyl)-2-morpholino-9-(thiazol-4-yl)-9H-purin-6-amine] | 0.8 µM (≈ 0.376 µg/mL) | 6 min | 57 % inh |  | 16 min | 89 % inh | 9 min | 97 % inh |  | 89 % inh | GI50 (U87 cell line): < 0.002 µM; GI50 (MDA-MB-231 cell line): < 0.002 µM |
| Fc1ccc2[nH]c(CNc3nc(N4CCOCC4)nc4c3ncn4-c3cncs3)nc2c1F [Compound 8, N-((4,5-difluoro-1H-benzo[d]imidazol-2-yl)methyl)-2-morpholino-9-(thiazol-5-yl)-9H-purin-6-amine] |  |  |  | 6.20 |  |  |  |  | 6.38 |  |  |
